Measurements reported in patent US20050208139A1 (Ascend Therapeutics, Inc., priority 2004, published 2005).

Experiments:
[1] = tested on: normal and cancerous breast cells; conditions: in vitro; cited from earlier work
[2] = Effects of isopropyl myristate, nature of the alcohol and alcohol/phosphate buffer ratio on isomerization (Example 2); assay type: physicochemical
Description: The initial E/Z ratio was 63%/37%. • Reference solution: Gel formulation without the gelling agent KLUCEL • Solution II: Reference solution without Isopropyl myristate and containing ethanol • Solution III: Solution II with the ethanol replaced by Isopropyl alcohol • Solution IV: Solution II with the ethanol/buffer ratio of 50/50 instead of 66.5/33.5

[3] = Effects of UV light on isomerization (Example 4); assay type: physicochemical; conditions: room temperature
estrogen receptors = conditions: in vitro; cited from earlier work
[4] = 254 nm, T0, degradation impurity (phenanthrene derivative)

CCC(=C(c1ccc(O)cc1)c1ccc(OCCN(C)C)cc1)c1ccccc1 [4-hydroxy tamoxifen, 1-[4-(2-N-dimethylaminoethoxy)phenyl]-1-(4-hydroxyphenyl)-2-phenylbut-1-ene]
growth of both normal and cancerous breast cells [1]: inhibits the growth | effect of replacing ethanol by isopropyl alcohol and eliminating the isopropyl myristate on the reversible kinetics ([2]; 0.06% solutions): no significant effect | effect of increasing the aqueous vehicle (buffer) concentration from 33.5% to 50% on the rate constant ([2]; 25° C. and 30° C.): greatly increases the rate constant | effect of increasing the aqueous vehicle (buffer) concentration from 33.5% to 50% on the rate constant ([2]; 40° C.): less pronounced | dependence of the isomerization rate on the dielectric constant of the solvent medium ([2]; water concentration in the medium increases): increased as the dielectric constant of the solvent medium is increased | % E ([3]; 254 nm, 5 min): 3.0% | % Z ([3]; 254 nm, 5 min): 91.5% | % imp 1 ([3]; 254 nm, 5 min): 0.0% | % imp 2 ([3]; 254 nm, 5 min): 5.5% | % E ([3]; 254 nm, 10 min): 3.1% | % Z ([3]; 254 nm, 10 min): 90.5% | % imp 1 ([3]; 254 nm, 10 min): 0.0% | % imp 2 ([3]; 254 nm, 10 min): 6.3% | % E ([3]; 254 nm, 15 min): 3.5% | % Z ([3]; 254 nm, 15 min): 86.5% | % imp 1 ([3]; 254 nm, 15 min): 1.3% | % imp 2 ([3]; 254 nm, 15 min): 8.7% | % E ([3]; 254 nm, 30 min): 5.7% | % Z ([3]; 254 nm, 30 min): 74.4% | % imp 1 ([3]; 254 nm, 30 min): 4.3% | % imp 2 ([3]; 254 nm, 30 min): 15.6% | % E ([3]; 254 nm, 45 min): 6.7% | % Z ([3]; 254 nm, 45 min): 65.1% | % imp 1 ([3]; 254 nm, 45 min): 7.8% | % imp 2 ([3]; 254 nm, 45 min): 20.4% | % E ([3]; 254 nm, 1 h): 7.2% | % Z ([3]; 254 nm, 1 h): 56.6% | % imp 1 ([3]; 254 nm, 1 h): 10.2% | % imp 2 ([3]; 254 nm, 1 h): 26.0% | % E ([3]; 254 nm, 1 h 15): 7.5% | % Z ([3]; 254 nm, 1 h 15): 52.7% | % imp 1 ([3]; 254 nm, 1 h 15): 11.4% | % imp 2 ([3]; 254 nm, 1 h 15): 28.4% | % E ([3]; 254 nm, 1 h 30): 8.2% | % Z ([3]; 254 nm, 1 h 30): 43.5% | % imp 1 ([3]; 254 nm, 1 h 30): 14.0% | % imp 2 ([3]; 254 nm, 1 h 30): 34.2% | % E ([3]; 254 nm, 1 h 45): 8.2% | % Z ([3]; 254 nm, 1 h 45): 38.2% | % imp 1 ([3]; 254 nm, 1 h 45): 16.5% | % imp 2 ([3]; 254 nm, 1 h 45): 37.1% | % E ([3]; 254 nm, 2 h): 8.3% | % Z ([3]; 254 nm, 2 h): 32.5% | % imp 1 ([3]; 254 nm, 2 h): 18.2% | % imp 2 ([3]; 254 nm, 2 h): 41.0% | % E ([3]; 254 nm, T0): 1.7% | % Z ([3]; 254 nm, T0): 98.3% | % imp 1 [3, 4]: 0.0% | % imp 2 [3, 4]: 0.0% | % E ([3]; 380 nm, 5 min): 1.6% | % Z ([3]; 380 nm, 5 min): 98.4% | % E ([3]; 380 nm, 10 min): 1.7% | % Z ([3]; 380 nm, 10 min): 98.3% | % E ([3]; 380 nm, 15 min): 1.6% | % Z ([3]; 380 nm, 15 min): 98.4% | % E ([3]; 380 nm, 30 min): 1.8% | % Z ([3]; 380 nm, 30 min): 98.2% | % E ([3]; 380 nm, 45 min): 1.9% | % Z ([3]; 380 nm, 45 min): 98.1% | % E ([3]; 380 nm, 1 h): 2.0% | % Z ([3]; 380 nm, 1 h): 98.0% | % E ([3]; 380 nm, 1 h 15): 2.8% | % Z ([3]; 380 nm, 1 h 15): 97.2% | % E ([3]; 380 nm, 1 h 30): 2.9% | % Z ([3]; 380 nm, 1 h 30): 97.1% | % E ([3]; 380 nm, 1 h 45): 2.9% | % Z ([3]; 380 nm, 1 h 45): 97.1% | % E ([3]; 380 nm, 2 h): 3.3% | % Z ([3]; 380 nm, 2 h): 96.7% | % E ([3]; 380 nm, T0): 1.6% | % Z ([3]; 380 nm, T0): 98.4% | isomerization process at 254 nm compared with 380 nm ([3]; UV light): faster than at 380 nm | time in which the isomerization process can be observed under UV light [3]: 5 min | potency as measured by binding affinity to estrogen receptors, compared with tamoxifen (estrogen receptors): more potency than tamoxifen
